This is an account of results in patent publication US20240139210A1, “TREATMENT OF NF-KB-MEDIATED DISEASE” (ReveraGen BioPharma, Inc., priority 2020, published 2024).

The test system of series [1] is participants with DMD. Particulars: CINRG DNHS, deflazacort n = 94, prednisone n = 80; cited from earlier work.
For series [2], the system named is boys with DMD. Particulars: cited from earlier work; for LS Mean change in height percentiles for age: 12-month treatment period, DMD.
The subject of series [3] is boys with DMD. Kind of series: CINRG 12-month prednisone clinical trial, external comparator. Particulars: vamorolone 18-month treatment versus prednisone trial 12-month treatment. Format: in vivo, human. The protocol: As with the CINRG DNHS comparators, group-matching criteria were prespecified in the iSAP, and 2 independent statisticians carried out the participant matching. […] There was no corresponding 12-month assessment in vamorolone-treated participants. (Assessments of vamorolone-treated trial participants were 0, 3, 6, and 18 months).
Participants in the corticosteroid-treated CINRG DNHS group were treated for at least 18 months, but the total duration, dose, and regimens varied.

The test system of series [4] is ambulant boys aged 4 to <7 years with DMD. Kind of series: VBP15-004 bone turnover biomarkers. Format: in vivo, human. Particulars: Prednisone 0.75 mg (N = 24).
For series [5] the test system is unchanged. Kind of series: VBP15-004 adverse events. The arrangement: species or system human. Particulars: male, human, in vivo, 24 weeks. The source says:
(§1) The second period of 24 weeks, where all participants receive vamorolone treatment on either of the two dose levels, will continue to capture additional longer-term safety and tolerability data.
The study completion rate at 24 weeks was 94% (or 114 of 121 participants).
Pre-specified AESIs typically for corticosteroids were higher in prednisone-treated subjects than vamorolone-treated subjects after 24 weeks of treatment (Table 10).

Series [6] shares this test system. Briefly: VBP15-004 growth (height Z scores). Format: in vivo, human. As to conditions: prednisone 0.75 mg/kg/day.
Text: as §1

The mark [7] stands for this setting: 0.9 mg/kg/day deflazacort (n = 68), 0.75 mg/kg/day prednisone (n = 63).

Structures are written as SMILES. Where two headings read alike, the source gives them in different places.

Regarding `CC(=O)OCC(=O)[C@@]12N=C(C)O[C@@H]1C[C@H]1[C@@H]3CCC4=CC(=O)C=C[C@]4(C)[C@H]3[C@@H](O)C[C@@]12C` [Deflazacort, deflazacort], in series [1], the “Incidence of physician-reported Cushingoid” value is reported as 72%, the “Incidence of physician-reported behavior change” value is recorded as 33% and the “Incidence of physician-reported weight gain” value is reported as 63%. Also, in series [2] (setting [7]), the “Incidence of physician-reported Cushingoid” value is reported as 60.3%, the “Incidence of physician-reported behavior change” value is recorded as 9%, the “Incidence of physician-reported hypertrichosis/hirsutism” value is listed as 35% and the “Incidence of physician-reported weight gain” value is recorded as 27.9%. The “LS Mean change in height percentiles for age” value in series [2] is −11.4 percentile. Besides, the “LS Mean change in height percentiles for age” value in series [2] (listed as deflazacort) is −11.43 percentile.
As for `C[C@]12C=CC(=O)C=C1CC[C@@H]1[C@@H]2C(=O)C[C@@]2(C)[C@H]1CC[C@]2(O)C(=O)CO` [Prednisone, prednisone], in series [3], the “Mean BMI z-score, LS mean difference (SE), ANCOVA” value is listed as 0.066 (0.193) and the “Mean height percentile for age, LS mean difference (SE), ANCOVA” value is reported as 10.37 (3.86) percentile. In series [4], the “Osteocalcin, mean (SEM) change at Week 24” value was −15.2 (2.7) ng/ml; the “Procollagen 1 N-Terminal Propeptide (P1NP), mean (SEM) change at Week 24” value is −134 (22) ng/mL; the “Type I Collagen C-Telopeptides (CTX), mean (SEM) change at Week 24” value was −300 (43) pg/mL. Further, in series [5], the “clinically relevant psychiatric events, subjects” value was found to be 19.4%; the “incidence of behavior problems” value is 32.3%; the “moderate/severe behavior problems, subjects” value was found to be 22.6%. Further, the “change in height Z scores from baseline to Week 24” value in series [6] is “growth deceleration”.
